The structures appear in SMILES notation.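 1) Cells in 96-well plates. 2) Compound, 48 h, 5 concentrations. 3) Linear interpolation between surrounding doses. 4) Unreached endpoint = highest concentration. GI50 is the concentration that inhibits growth by half.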 The source made the active and inactive calls. Rule as the data show it: active = GI50 up to about 1.1 µM and inactive = higher.

Test systems include NCI-H522; UACC-62; MDA-MB-435; UACC-257; EKVX; A549; OVCAR-5; SF-539; SF-268; UO-31; LOX IMVI; Malme-3M; NCI-H226; ACHN; SW-620; CAKI-1; SF-295; MOLT-4; BT-549.
Holding throughout (test): inhibition of tumour cell growth, NCI panel, 48 h

`Cc1ccnc(Nc2[nH]c(C(=O)c3ccc(Cl)cc3)c(N)c2C(=S)Nc2ccccc2)c1`: the GI50 in the assay with NCI-H522 is 12.8 µM (inactive); in the assay with UACC-62 it was 10.6 µM (inactive); in the assay with MDA-MB-435, 15.7 µM (inactive); in the assay on UACC-257, 15.6 µM (inactive); with EKVX it was 14.5 µM (inactive); in the assay with A549, 16 µM (inactive). For the same molecule, the GI50 is 21.2 µM (inactive) with OVCAR-5; 12.7 µM (inactive) in the assay on SF-539; 21.1 µM (inactive) in the assay with SF-268; 18 µM (inactive) in the assay with UO-31; 14.8 µM (inactive) in the assay on LOX IMVI; 13.8 µM (inactive) with Malme-3M. For the same molecule, the GI50 in the assay with NCI-H226 is 17.7 µM (inactive); with ACHN, 21.7 µM (inactive); in the assay with SW-620, 25.9 µM (inactive); in the assay with CAKI-1 it was 27.9 µM (inactive); in the assay with SF-295 it was 14.5 µM (inactive); with MOLT-4, 10.9 µM (inactive). Further, the GI50 in the assay with BT-549 is 14.2 µM (inactive).
As to `N#Cc1c(N)n(-c2nc3ccccc3s2)c(=O)c2cc([N+](=O)[O-])ccc12`, the GI50 was 6.49 µM (inactive) in the assay on NCI-H522; 21.3 µM (inactive) with UACC-62; 25 µM (inactive) with MDA-MB-435; 23.4 µM (inactive) with UACC-257; 23.3 µM (inactive) with EKVX; 14.6 µM (inactive) in the assay with A549. The GI50 in the assay with OVCAR-5 was 24.8 µM (inactive); in the assay with SF-539, 12.4 µM (inactive); in the assay on SF-268, 15 µM (inactive); in the assay on UO-31, 21.7 µM (inactive); with LOX IMVI, 7.03 µM (inactive); in the assay on Malme-3M, 18.7 µM (inactive). For the same molecule, the GI50 with NCI-H226 is 6.93 µM (inactive); with ACHN, 20.3 µM (inactive); in the assay on SW-620, 26.2 µM (inactive); in the assay with CAKI-1, 20.9 µM (inactive); with SF-295, 9.2 µM (inactive); in the assay with MOLT-4 it was 5.46 µM (inactive). Moreover, the GI50 in the assay on BT-549 was 21.2 µM (inactive).
As for `CC(=O)n1nc(-c2ccccc2)n(/N=C/c2ccc([N+](=O)[O-])cc2)c1=O`, the GI50 with NCI-H522 is 51.3 µM (inactive); in the assay on UACC-62, > 100 µM (inactive); in the assay on MDA-MB-435, > 100 µM (inactive); in the assay with UACC-257, > 100 µM (inactive); in the assay on EKVX, 31.1 µM (inactive); in the assay on A549, > 100 µM (inactive). Besides, the GI50 with OVCAR-5 was > 100 µM (inactive); with SF-539, > 100 µM (inactive); in the assay on SF-268 it was 43.5 µM (inactive); with UO-31 it was > 100 µM (inactive); in the assay with LOX IMVI, > 100 µM (inactive); in the assay with Malme-3M, 90.8 µM (inactive). The GI50 in the assay on NCI-H226, with ACHN, in the assay with SW-620, in the assay with CAKI-1, with SF-295 and in the assay with MOLT-4 was > 100 µM (inactive) throughout. Further, in the assay on BT-549, the GI50 was > 100 µM (inactive).
As to `CCCCn1c(C)c2c(c1C)C(=O)N(CCN1CCN(c3ccccc3Cl)CC1)C2=O`, the GI50 in the assay with NCI-H522 is 25.5 µM (inactive); in the assay with UACC-62, 32.4 µM (inactive); in the assay with MDA-MB-435, 32.4 µM (inactive); in the assay with UACC-257 it was 28.6 µM (inactive); with EKVX it was 35.6 µM (inactive); in the assay with A549, 38.2 µM (inactive). For the same molecule, the GI50 was 61.8 µM (inactive) in the assay with OVCAR-5; 17.9 µM (inactive) in the assay on SF-539; 17.6 µM (inactive) in the assay with SF-268; 17.6 µM (inactive) in the assay on UO-31; 16.5 µM (inactive) with LOX IMVI; 21 µM (inactive) in the assay on Malme-3M. The GI50 with NCI-H226 is 36.9 µM (inactive); with ACHN, 38.1 µM (inactive); with SW-620, 37.5 µM (inactive); in the assay with CAKI-1 it was 69.3 µM (inactive); in the assay on SF-295, 23.1 µM (inactive); with MOLT-4, 22 µM (inactive). For the same molecule, the GI50 with BT-549 is 17.3 µM (inactive).
Consider `O=C1C(=C(I)I)c2ccccc2-c2ccccc21`, for which the GI50 in the assay with NCI-H522 was 1.04 µM (active); in the assay on UACC-62 it was 4.52 µM (inactive); in the assay with MDA-MB-435, 2.24 µM (inactive); with UACC-257, 2.1 µM (inactive); with EKVX it was 3 µM (inactive); in the assay with A549, 16.3 µM (inactive). Moreover, the GI50 in the assay with OVCAR-5 was 5.47 µM (inactive); with SF-539 it was 1.34 µM (inactive); with SF-268, 6.71 µM (inactive); in the assay with UO-31, 2.1 µM (inactive); in the assay with LOX IMVI it was 2.08 µM (inactive); with Malme-3M it was 1.64 µM (inactive). Further, the GI50 in the assay with NCI-H226 was 19.7 µM (inactive); with ACHN it was 2.32 µM (inactive); with SW-620 it was 1.63 µM (inactive); in the assay on CAKI-1 it was 2.82 µM (inactive); with SF-295, 16.6 µM (inactive); in the assay on MOLT-4, 0.883 µM (active). For the same molecule, the GI50 with BT-549 is 6.12 µM (inactive).
In the case of `COC(=O)/C(=C(/C)c1ccco1)P(=O)(OC)OC`, the GI50 with NCI-H522, with UACC-62, with MDA-MB-435, with UACC-257, in the assay with EKVX and with A549 was > 100 µM (inactive) each time. The GI50 with OVCAR-5 was > 100 µM (inactive); with SF-539, > 100 µM (inactive); in the assay with SF-268, > 100 µM (inactive); in the assay with UO-31, 0.01 µM (active); in the assay with LOX IMVI, > 100 µM (inactive); with Malme-3M, > 100 µM (inactive). For the same molecule, the GI50 in the assay with NCI-H226, in the assay on ACHN, in the assay on SW-620, in the assay on CAKI-1, in the assay with SF-295 and in the assay with MOLT-4 was > 100 µM (inactive) throughout. The GI50 in the assay with BT-549 is > 100 µM (inactive).
Turning to `CCCCN1C(=O)c2c(-c3sccc3N)sc(-c3sccc3N)c2C1=O`, the GI50 in the assay on NCI-H522 was 14.1 µM (inactive); with UACC-62, 19.3 µM (inactive); in the assay with MDA-MB-435, 30.8 µM (inactive); in the assay with UACC-257, 56.1 µM (inactive); in the assay on EKVX, 26.9 µM (inactive); in the assay with A549, 24.1 µM (inactive). Besides, the GI50 was 21.5 µM (inactive) in the assay with OVCAR-5; 12.4 µM (inactive) in the assay on SF-539; 12.3 µM (inactive) in the assay on SF-268; 6.84 µM (inactive) with UO-31; 30.7 µM (inactive) in the assay on LOX IMVI; 21.6 µM (inactive) in the assay on Malme-3M. Also, the GI50 in the assay on NCI-H226 was 0.713 µM (active); with ACHN it was 15.7 µM (inactive); with SW-620, > 32.6 µM (inactive); with CAKI-1, 23.8 µM (inactive); in the assay with SF-295, 14.5 µM (inactive); with MOLT-4, 2.8 µM (inactive). Also, the GI50 with BT-549 is 29.4 µM (inactive).
For the molecule `CSc1nnnc2ccccc12`, the GI50 in the assay on NCI-H522, with UACC-62, in the assay with MDA-MB-435, in the assay with UACC-257, in the assay on EKVX and in the assay with A549 was > 100 µM (inactive) in each case. Besides, the GI50 with OVCAR-5, with SF-539, in the assay on SF-268, with UO-31, with LOX IMVI and in the assay with Malme-3M was > 100 µM (inactive) throughout. Besides, the GI50 in the assay with NCI-H226, with ACHN, in the assay on SW-620, in the assay on CAKI-1, in the assay on SF-295 and in the assay on MOLT-4 was > 100 µM (inactive) each time. Besides, the GI50 with BT-549 was > 100 µM (inactive).
On to `C[C@]12CC[C@H](O)C[C@@H]1CC[C@@H]1[C@@H]2CC[C@]2(C)[C@@H](C3=CC(=O)OC3)CC[C@]12O`, for which the GI50 in the assay with NCI-H522 is 0.719 µM (active); in the assay on UACC-62, 3.55 µM (inactive); in the assay with MDA-MB-435, 3.03 µM (inactive); in the assay with UACC-257, 4.03 µM (inactive); in the assay with EKVX it was 2.38 µM (inactive); in the assay with A549 it was 0.627 µM (active). Besides, the GI50 in the assay with OVCAR-5 was 4.25 µM (inactive); in the assay with SF-539, 1.29 µM (inactive); in the assay with SF-268 it was 1.75 µM (inactive); in the assay on UO-31, 2.37 µM (inactive); with LOX IMVI, 2.59 µM (inactive); in the assay on Malme-3M, 2.16 µM (inactive). The GI50 in the assay on NCI-H226 was 11.2 µM (inactive); in the assay with ACHN, 0.687 µM (active); with SW-620 it was 3.51 µM (inactive); in the assay with CAKI-1 it was 1.81 µM (inactive); with SF-295 it was 2.73 µM (inactive); in the assay on MOLT-4 it was 0.359 µM (active). Moreover, the GI50 in the assay with BT-549 is 1.88 µM (inactive).
On to `NCCNCCNc1ccc(NCCNCCN)c2c1C(=O)c1c(O)ccc(O)c1C2=O`, for which the GI50 in the assay on NCI-H522, with UACC-62, in the assay on MDA-MB-435, in the assay on UACC-257, in the assay with EKVX and with A549 was > 100 µM (inactive) in each case. The GI50 with OVCAR-5, in the assay with SF-539, with SF-268, with UO-31, in the assay with LOX IMVI and with Malme-3M was > 100 µM (inactive) throughout. In addition, the GI50 in the assay on NCI-H226 was > 100 µM (inactive); with ACHN, > 100 µM (inactive); with SW-620, > 100 µM (inactive); in the assay on CAKI-1, > 100 µM (inactive); in the assay with SF-295, 99.3 µM (inactive); in the assay on MOLT-4, 14 µM (inactive). Besides, the GI50 in the assay with BT-549 is > 100 µM (inactive).

(Values after ChEMBL document CHEMBL1201862, “PubChem BioAssay data set” (2004).)
